Experimental data from ChEMBL document CHEMBL4602695, “Discovery and SARs of 5-Chloro-N4-phenyl-N2-(pyridin-2-yl)pyrimidine-2,4-diamine Derivatives as Oral Available and Dual CDK 6 and 9 Inhibitors with Potent Antitumor Activity” (J Med Chem, 2020).
Converted amounts (≈) assume the structure as drawn.

Tests used:
MDA-MB-231 [1] = test: Induction of apoptosis in human MDA-MB-231 cells assessed as viable cells at 4 uM measured after 48 hrs by Annexin V-FITC/propidium iodide staining based flow cytometry (95.8%); assay type: functional; conditions: MDA-MB-231, 48 h, read-out: Activity
[2] = Toxicity in ICR mouse assessed as weight loss at 500 mg/kg, po administered as single dose measured for 7 days; assay type: organism-based; conditions: in vivo, 168 h
[3] = Stability in mouse hepatocytes assessed as parent compound remaining after 120 mins by LC-MS/MS analysis; assay type: ADME, cell-based, Hepatocyte; conditions: read-out: Stability
[4] = Thermodynamic equilibrium solubility in water by HPLC-based shake flask method; assay type: physicochemical; conditions: read-out: Therm_solubility
CDK9/Cyclin K = CDK9/Cyclin K (Homo sapiens, UniProt P50750); test: biochemical
Chain of CDK9/Cyclin K (P50750 whole entry): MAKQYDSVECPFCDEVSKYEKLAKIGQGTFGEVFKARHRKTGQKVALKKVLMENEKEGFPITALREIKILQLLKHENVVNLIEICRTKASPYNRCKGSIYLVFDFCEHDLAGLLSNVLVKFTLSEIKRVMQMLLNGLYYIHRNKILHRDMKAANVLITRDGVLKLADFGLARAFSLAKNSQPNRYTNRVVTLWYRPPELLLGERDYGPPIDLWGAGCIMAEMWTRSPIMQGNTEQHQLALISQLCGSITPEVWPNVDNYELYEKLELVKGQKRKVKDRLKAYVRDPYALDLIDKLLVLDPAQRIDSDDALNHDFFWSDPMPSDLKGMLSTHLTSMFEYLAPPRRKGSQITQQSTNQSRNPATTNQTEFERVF
Chain of CDK9/Cyclin K (O75909 whole entry, further chain): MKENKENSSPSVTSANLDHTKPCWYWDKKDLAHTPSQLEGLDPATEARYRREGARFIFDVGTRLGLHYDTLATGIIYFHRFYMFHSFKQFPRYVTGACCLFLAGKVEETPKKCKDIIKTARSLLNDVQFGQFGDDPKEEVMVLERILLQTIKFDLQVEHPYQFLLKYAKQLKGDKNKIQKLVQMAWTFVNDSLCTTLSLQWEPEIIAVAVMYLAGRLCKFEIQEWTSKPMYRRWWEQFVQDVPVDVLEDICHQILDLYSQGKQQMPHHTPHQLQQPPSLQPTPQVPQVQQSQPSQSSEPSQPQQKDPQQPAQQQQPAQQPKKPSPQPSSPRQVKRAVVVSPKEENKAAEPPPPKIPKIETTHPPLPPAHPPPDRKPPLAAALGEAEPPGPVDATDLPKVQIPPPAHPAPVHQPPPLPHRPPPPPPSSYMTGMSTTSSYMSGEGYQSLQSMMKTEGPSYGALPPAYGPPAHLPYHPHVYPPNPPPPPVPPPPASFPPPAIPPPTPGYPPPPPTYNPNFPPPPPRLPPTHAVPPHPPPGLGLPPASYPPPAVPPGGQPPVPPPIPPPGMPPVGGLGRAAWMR

[5] = molecular target: Cyclin-dependent kinase 5/CDK5 activator 1 (Homo sapiens, UniProt Q00535); conditions: Sf9, human, read-out: INH
Chain of Cyclin-dependent kinase 5/CDK5 activator 1 (Q00535 whole entry): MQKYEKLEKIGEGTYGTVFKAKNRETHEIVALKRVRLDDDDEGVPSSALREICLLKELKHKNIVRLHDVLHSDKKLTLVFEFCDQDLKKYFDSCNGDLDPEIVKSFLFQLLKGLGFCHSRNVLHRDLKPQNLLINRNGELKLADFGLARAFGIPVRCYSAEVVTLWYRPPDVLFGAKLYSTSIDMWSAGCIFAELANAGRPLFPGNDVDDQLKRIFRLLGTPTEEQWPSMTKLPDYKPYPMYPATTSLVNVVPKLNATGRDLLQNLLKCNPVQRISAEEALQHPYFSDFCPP
Chain of Cyclin-dependent kinase 5/CDK5 activator 1 (Q15078 whole entry, further chain): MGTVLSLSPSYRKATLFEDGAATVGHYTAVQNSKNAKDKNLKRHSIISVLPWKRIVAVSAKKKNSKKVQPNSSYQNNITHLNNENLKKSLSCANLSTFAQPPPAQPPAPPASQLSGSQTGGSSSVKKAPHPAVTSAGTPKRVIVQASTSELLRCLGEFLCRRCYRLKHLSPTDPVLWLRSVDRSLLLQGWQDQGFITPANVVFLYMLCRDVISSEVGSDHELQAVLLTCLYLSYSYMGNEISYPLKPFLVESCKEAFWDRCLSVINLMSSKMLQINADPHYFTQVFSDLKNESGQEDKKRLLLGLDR

MDA-MB-231 [6] = test: Cell cycle arrest in human MDA-MB-231 cells assessed as accumulation at S phase at 8 uM measured after 48 hrs by propidium iodide staining based flow cytometry (reference value: 26.45%); assay type: functional
[7] = Half life in human hepatocytes by LC-MS/MS analysis; assay type: ADME, cell-based, Hepatocyte
MDA-MB-231 [8] = test: Cell cycle arrest in human MDA-MB-231 cells assessed as accumulation at G2/M phase at 4 uM measured after 48 hrs by propidium iodide staining based flow cytometry (reference value: 15.9%); assay type: functional
[9] = Clearance in Sprague-Dawley rat at 10 mg/kg, po by LC-MS/MS analysis; assay type: ADME, organism-based; conditions: in vivo
[10] = Cmax in Sprague-Dawley rat at 2 mg/kg, iv by LC-MS/MS analysis; assay type: ADME, organism-based; set-up: dose 2 mg/kg, route intravenous; conditions: in vivo
MDA-MB-231 [11] = test: Induction of apoptosis in human MDA-MB-231 cells assessed as late apoptotic cells at 4 uM measured after 48 hrs by Annexin V-FITC/propidium iodide staining based flow cytometry (2.78%); assay type: functional
[12] = Clearance in Sprague-Dawley rat at 2 mg/kg, iv by LC-MS/MS analysis; assay type: ADME, organism-based; conditions: in vivo
[13] = Tmax in Sprague-Dawley rat at 10 mg/kg, po by LC-MS/MS analysis; assay type: ADME, organism-based; conditions: in vivo

CC(=O)Nc1cccc(Nc2nc(Nc3ccc(N4CCN(C)CC4)cn3)ncc2Cl)c1
viability at 4 µM (MDA-MB-231 [1]): 94.2% | Activity [2]: Non-Toxic | remaining at 2 h [3]: 12% | solubility thermodynamic [4]: 340 µg/mL (≈ 751 µM) | IC50 (CDK9/Cyclin K): 39.5 nM | inhibition at 1 µM [5]: < 6.6% | Activity (MDA-MB-231 [6]): 14.36% | half-life [7]: 1.53 h | Activity (MDA-MB-231 [8]): 9.18% | CL/F [9]: 180 mL/min/kg | Cmax [10]: 995 ng/mL | Activity (MDA-MB-231 [11]): 3.15% | clearance [12]: 52.2 mL/min/kg | Tmax [13]: 4 h
